In one assay the test system is L. ramosa. The assay is described as follows: Checkerboard MICs of AmB, ISA and PEG15HS in solution. In kind it is cell-based, Lichtheimia ramosa. Particulars: Lichtheimia ramosa, RPMI, 24 h at 37° C. On the procedure: (§1) AmB minimum inhibitory concentrations (MIC) of each strain of Mucorales was measured in RPMI in the presence of different concentrations of ISA or PEG15HS as described by the EUCAST broth microdilution antifungal susceptibility test methodology with modification for the checkerboard procedure. Checkerboards were performed by adding 100 μL of two-fold dilutions of AmB (0.008 to 4 mg/L) and ISA (0.008 to 4 mg/L) or PEG15HS (0.04 to 2752 mg/L) in 96 well plates. One hundred microliters of a spore suspension at a concentration of 105 spores/mL were added to the wells, and the plates were incubated for 24 h at 37° C. […] Three experiments were performed for each strain.
(§2) AmB MIC of each strain of Mucorales was measured in RPMI in the presence of different concentrations of ISA and a constant concentration of PEG15HS (100 times the concentration of AmB) as described by the EUCAST broth microdilution antifungal susceptibility test methodology with modification for the checkerboard procedure. Checkerboards were performed by adding 100 μL of two-fold dilutions of AmB (0.008 to 4 mg/L)+PEG15HS (0.8 to 400 mg/L) and ISA (0.008 to 4 mg/L) in 96 well plates. One hundred microliters of a spore suspension at a concentration of 105 spores/mL were added to the wells, and the plates were incubated for 24 h at 37° C. […] Three experiments were performed for each strain. […]

A further assay has as its system Lichtheimia corymbifera. Put plainly: EUCAST MICs of AmB, ISA, AmB-loaded LNPs and AmB-ISA-loaded LNPs. The assay is classed as cell-based. Particulars: Lichtheimia corymbifera; 24 h at 37° C. The procedure:
(§3) Briefly, a mass (80-120 mg) of an oil phase consisting of triglycerides (Labrafac®, or tributyrin in different mass ratios, i.e. 100% Labrafac® to 100% tributyrin) was supplemented with AmB (0,025 to 0.2 mg) and ISA (0.25 to 5 mg) and then mixed with 80 to 120 mg of PEG15HS (Solutol HS15®) and 500 to 800 μl of water to form an oil-in-water emulsion. This emulsion was then heated to 85° C., to obtain a water-in-oil emulsion, and then cooled to 40° C. Three such temperature cycles were performed and the system was then fast cooled to 4° C. The formulated nanoparticles were then characterized by size distribution and mean zeta potential measurements. Examples of formulations of LNPs loaded with AmB and AmB-ISA are detailed in Table 5:
(§4) Rhizopus arrhizus 1, Lichtheimia corymbifera and Lichtheimia ramosa strains were used. These correspond to the most frequently encountered species in human mucormycosis. These three strains were isolated from patients suffering from pulmonary mucormycosis.
(§5) MICs of AmB in solution, ISA in solution, AmB-loaded LNPs, and AmB-ISA-loaded LNPs were evaluated according to the European Committee on Antimicrobial Susceptibility Testing (EUCAST) guidelines. Briefly, MICs were determined by adding 100 μL of two-fold dilutions of AmB in solution, ISA in solution, AmB-LNPs or AmB-ISA-LNPs (0.008 to 4 mg/L) in 96-well plates. One hundred microliters of a spore suspension at a concentration of 105 spores/mL were added to the wells, and the plates were incubated for 24 h (Mucorales) or 48 h (A. fumigatus) at 37° C. […] Three experiments were performed for each strain.

The subject of assay [1] is Rhizopus arrhizus 1. The description is as above. The settings on record: Rhizopus arrhizus, 1; 24 h at 37° C. The assay is classed as cell-based. The procedure:
as §3, §4, §5

The subject of a further assay is Lichtheimia ramosa. The description is as above. The assay is classed as cell-based. Particulars: Lichtheimia ramosa; 24 h at 37° C. The procedure: as §3, §4, §5
The subject of assay [2] is Rhizopus arrhizus 1. Put plainly: Checkerboard MICs of AmB, ISA and PEG15HS in solution. The assay is classed as cell-based. Particulars: Rhizopus arrhizus, 1, RPMI, 24 h at 37° C. The procedure: as §1, §2
For another assay, the system named is Aspergillus fumigatus. The assay is described as follows: EUCAST MICs of AmB, ISA, AmB-loaded LNPs and AmB-ISA-loaded LNPs. The settings on record: 48 h at 37° C. In kind it is cell-based. On the procedure:
as §3
Two reference strains (ATCC 16424 and ATCC 204305) and a clinical azole-resistant strain (AfR2) of Aspergillus fumigatus were used.
as §5

In a further assay the test system is L. corymbifera. Put plainly: Checkerboard MICs of AmB, ISA and PEG15HS in solution. The assay is classed as cell-based, Lichtheimia corymbifera. Particulars: Lichtheimia corymbifera, RPMI, 24 h at 37° C. On the procedure: as §1, §2

The MIC is the lowest concentration that inhibits growth of the organism.

In brackets after ≈: the same amount, converted by molar mass. Bounds are passed on as bounds.

Turning to `C[C@@H](c1nc(-c2ccc(C#N)cc2)cs1)[C@](O)(Cn1cncn1)c1cc(F)ccc1F` [ISA, isavuconazole], the MIC in the assay on L. ramosa was determined as 4 µg/mL; with Lichtheimia corymbifera it was 4 µg/mL (≈ 9.14 µM); against Rhizopus arrhizus 1 [1], 1 µg/mL (≈ 2.29 µM); against Lichtheimia ramosa it was 4 µg/mL (≈ 9.14 µM); in the assay on Rhizopus arrhizus 1 [2], 1 µg/mL; against Aspergillus fumigatus (ATCC16424, Aspergillus fumigatus 16 (ATCC 16424)), 0.5 µg/mL (≈ 1.14 µM). In addition, the MIC against Aspergillus fumigatus (Aspergillus fumigatus, ATCC204305, A. fumigatus 20 (ATCC 204305)) was 0.5 µg/mL (≈ 1.14 µM); with Aspergillus fumigatus (Aspergillus fumigatus, A. fumigatus R2 (clinical azole-resistant strain AfR2)), above 4 µg/mL; with L. corymbifera, 4 µg/mL.
